Source: patent US20030229228A1 (priority 2000, published 2003)

melting point	SMILES
145 to 147 °C	CCS(=O)(=O)N[C@H](C(=O)NCCc1cc(Br)c(O)c(OC)c1)C(C)C
109 to 111 °C	CCS(=O)(=O)N[C@H](C(=O)NCCc1cc(Br)c(OCC#Cc2ccc(Cl)cc2)c(OC)c1)C(C)C
